The source of these data is ChEMBL document CHEMBL1201862, “PubChem BioAssay data set” (2004).

What all share (assay): NCI anticancer screen, dose series, 48 h
For experiment [1], the system named is COLO 205.
The test system of experiment [2] is DU-145.
Experiment [3] has as its system HCC 2998.
The subject of experiment [4] is HCT-116.
Experiment [5] relates to HCT-15.
Experiment [6] deals with HOP-62.
For experiment [7], the system named is HOP-92.
Experiment [8] deals with HT-29.
The test system of experiment [9] is IGROV-1.
In experiment [10] the test system is KM12.
The subject of experiment [11] is MDA-MB-435.
In experiment [12] the test system is Malme-3M.
In experiment [13] the test system is OVCAR-3.
Experiment [14] concerns OVCAR-8.
Experiment [15] deals with PC-3.
For experiment [16], the system named is RPMI-8226.
Experiment [17] concerns RXF 393.
The subject of experiment [18] is SK-MEL-28.
Experiment [19] has as its system UACC-257.
Experiment [20] concerns UO-31.

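Values below derive from 48-hour exposures of cells grown in 96-well plates, with endpoints linearly interpolated between the two concentrations bracketing the appropriate inhibition level. GI50 = concentration required for 50% inhibition of growth.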 Activity calls are given as the source filed them. No stated cut-off is given here; in the data, active = GI50 up to about 1.1 µM and inactive = higher.

On to `C=CC(C)(C)n1cc(C2=C3OC(=O)C(c4cn(C(C)(C)C=C)c5ccccc45)=C3OC2=O)c2ccccc21`, for which the GI50 in [1] is > 100 µM (inactive); in [2] it was > 100 µM (inactive); in [3] it was > 100 µM (inactive); in [4], > 100 µM (inactive); in experiment [5], above 100 µM; in experiment [6], > 100 µM (inactive). The GI50 in experiment [7], in [8], in experiment [9], in experiment [10], in experiment [11] and in [12] was > 100 µM (inactive) each time. The GI50 in [13], in experiment [14], in experiment [15], in [16], in experiment [17] and in experiment [18] was > 100 µM (inactive) each time. The GI50 in experiment [19] and in [20] was > 100 µM (inactive) throughout.
Regarding `O=C1N[C@H]2c3c(Cl)sc(Cl)c3C(=O)[C@H]2O1`, the GI50 was 14 µM (inactive) in experiment [1]; 23.4 µM (inactive) in experiment [2]; 5.46 µM (inactive) in experiment [3]; 3.64 µM (inactive) in experiment [4]; 2.38 µM in experiment [5]; 20.9 µM (inactive) in experiment [6]. For the same compound, the GI50 in experiment [7] is 18.5 µM (inactive); in experiment [8], 4.38 µM (inactive); in [9] it was 3.55 µM (inactive); in experiment [10] it was 39.1 µM (inactive); in experiment [11] it was 14.3 µM (inactive); in experiment [12], 10.1 µM (inactive). For the same compound, the GI50 was 17.3 µM (inactive) in [13]; 4.31 µM (inactive) in experiment [14]; 18.2 µM (inactive) in [15]; 19.7 µM (inactive) in experiment [16]; 25.6 µM (inactive) in experiment [17]; 6.79 µM (inactive) in experiment [18]. The GI50 in experiment [19] was 16.8 µM (inactive); in experiment [20], 19.1 µM (inactive).
In the case of `CCN(CC)c1ccc(NC(=S)NN(C)C)cc1`, the GI50 in experiment [1] was > 10 µM (inactive); in [2] it was > 10 µM (inactive); in experiment [3] it was > 10 µM (inactive); in experiment [4] it was > 10 µM (inactive); in [5], above 10 µM; in experiment [6], > 10 µM (inactive). The GI50 in experiment [7], in experiment [8], in experiment [9], in experiment [10], in experiment [11] and in experiment [12] was > 10 µM (inactive) each time. The GI50 in [13], in experiment [14], in [15], in experiment [16], in experiment [17] and in [18] was > 10 µM (inactive) throughout. Further, the GI50 in experiment [19] and in [20] was > 10 µM (inactive) each time.
As to `COc1ccc(C2c3cc4c(cc3OC(NNc3ccccc3)C2C)OCO4)cc1` (stereo not given), the GI50 in experiment [1] was 7.06 µM (inactive); in experiment [2], 5.52 µM (inactive); in [3] it was 1.82 µM (inactive); in experiment [4] it was 4.44 µM (inactive); in experiment [5] it was 1.05 µM; in experiment [6], 3.5 µM (inactive). Also, the GI50 in experiment [7] is 19.5 µM (inactive); in experiment [8], 11.6 µM (inactive); in experiment [9] it was 7.31 µM (inactive); in experiment [10] it was 2.91 µM (inactive); in experiment [11], 4.71 µM (inactive); in experiment [12] it was 8.47 µM (inactive). Also, the GI50 in experiment [13] is 4.82 µM (inactive); in experiment [14], 24.9 µM (inactive); in experiment [15], 4.8 µM (inactive); in experiment [16] it was 4.47 µM (inactive); in experiment [17] it was 8.51 µM (inactive); in experiment [18] it was 26.4 µM (inactive). In addition, the values for the GI50 in experiment [19] and in [20] were 5.79 µM (inactive) and 4.33 µM (inactive), respectively.
Regarding `CCCCCCCC(CC(=O)NC(CO)C(=O)NC(CO)CC(C)C)OC(=O)CC(CCCCCCC)OC(=O)CC(CCCCCCC)OC1OC(C)C(O)C(OC2OC(C)C(O)C(O)C2O)C1O` (stereo not given), the GI50 in experiment [1] was 8.87 µM (inactive); in [2], 12.6 µM (inactive); in experiment [3], 1.52 µM (inactive); in experiment [4] it was 7.53 µM (inactive); in [5], 19.7 µM; in experiment [6], 18.9 µM (inactive). Further, the GI50 was 12 µM (inactive) in [7]; 9.16 µM (inactive) in experiment [8]; 12.6 µM (inactive) in [9]; 11.7 µM (inactive) in [10]; 6.52 µM (inactive) in experiment [11]; 9.66 µM (inactive) in experiment [12]. Moreover, the GI50 is 13.9 µM (inactive) in [13]; 16.3 µM (inactive) in experiment [14]; 12.7 µM (inactive) in experiment [15]; 2.37 µM (inactive) in experiment [16]; 13.7 µM (inactive) in experiment [17]; 7.94 µM (inactive) in experiment [18]. The figures for the GI50 in [19] and in experiment [20] were 12.3 µM (inactive) and 16.6 µM (inactive), respectively.
Take `CCOC(=O)c1cc(C2(OC)CCN(Cc3ccccc3)C2=O)c(-c2cc(C)no2)[nH]1` (stereo not given): the GI50 in experiment [1] was > 100 µM (inactive); in [2], > 100 µM (inactive); in experiment [3], > 100 µM (inactive); in [4] it was > 100 µM (inactive); in experiment [5], above 100 µM; in experiment [6], > 100 µM (inactive). Besides, the GI50 in [7] was 90.6 µM (inactive); in [8], 75.7 µM (inactive); in experiment [9], > 100 µM (inactive); in experiment [10] it was > 100 µM (inactive); in experiment [11], > 100 µM (inactive); in experiment [12] it was > 100 µM (inactive). The GI50 in [13] was > 100 µM (inactive); in [14] it was > 100 µM (inactive); in [15] it was > 100 µM (inactive); in experiment [16], > 100 µM (inactive); in [17], 99.5 µM (inactive); in experiment [18] it was > 100 µM (inactive). For the same compound, the GI50 in experiment [19] and in experiment [20] was > 100 µM (inactive) throughout.
`CO[C@@H]1C[C@H]2[C@@H]3CC[C@H]([C@@H](C)CO)[C@@]3(C)CC[C@@H]2[C@@]2(C)CC[C@H]3C[C@]312`: the GI50 in experiment [1] is 17.6 µM (inactive); in experiment [2], 85.5 µM (inactive); in experiment [3] it was 33.1 µM (inactive); in experiment [4], 34.4 µM (inactive); in experiment [5], 33.3 µM; in experiment [6], 46.8 µM (inactive). For the same compound, the GI50 in experiment [7] is 18.9 µM (inactive); in experiment [8], 18.5 µM (inactive); in [9], 50.9 µM (inactive); in [10], 19 µM (inactive); in experiment [11] it was 27.5 µM (inactive); in [12] it was 19.5 µM (inactive). In addition, the GI50 is 45.1 µM (inactive) in experiment [13]; 31 µM (inactive) in [14]; 22.6 µM (inactive) in [15]; 25 µM (inactive) in experiment [16]; 19.2 µM (inactive) in experiment [17]; 27.6 µM (inactive) in [18]. Further, the GI50 in experiment [19] is 34 µM (inactive); in experiment [20], 39.8 µM (inactive).
With `CCCCNC(=O)OCCN=c1c2ccccc2ccc2ccccc12`, the GI50 was > 100 µM (inactive) in experiment [1]; > 100 µM (inactive) in experiment [2]; > 100 µM (inactive) in experiment [3]; > 100 µM (inactive) in experiment [4]; above 100 µM in [5]; > 100 µM (inactive) in [6]. For the same compound, the GI50 in [7], in experiment [8], in experiment [9], in experiment [10], in [11] and in experiment [12] was > 100 µM (inactive) throughout. The GI50 in [13], in [14], in experiment [15], in experiment [16], in experiment [17] and in [18] was > 100 µM (inactive) each time. Besides, the GI50 in experiment [19] and in [20] was > 100 µM (inactive) throughout.
On to `C=CCNC1=C2C[C@@H](C)C[C@@H](OC)[C@H](OC(=O)CN)[C@H](C)/C=C(\C)[C@@H](OC(N)=O)[C@H](OC)/C=C\C=C(/C)C(=O)NC(=CC1=O)C2=O`, for which the GI50 is 0.204 µM (active) in experiment [1]; 0.783 µM (active) in experiment [2]; 0.27 µM (active) in experiment [3]; 0.575 µM (active) in experiment [4]; 3.49 µM in [5]; 0.521 µM (active) in [6]. Moreover, the GI50 in experiment [7] is 3.41 µM (inactive); in [8] it was 0.0406 µM (active); in [9], 0.927 µM (active); in experiment [10], 0.27 µM (active); in [11], 0.418 µM (active); in experiment [12], 0.456 µM (active). In addition, the GI50 is 1.16 µM (inactive) in experiment [13]; 0.904 µM (active) in experiment [14]; 0.4 µM (active) in experiment [15]; 3.59 µM (inactive) in [16]; 1.95 µM (inactive) in [17]; 2.05 µM (inactive) in experiment [18]. Besides, the GI50 was 0.528 µM (active) in experiment [19] and 5.87 µM (inactive) in experiment [20].
In the case of `c1cc(-c2sc(-c3ccncc3)c(-c3ccncc3)c2-c2ccncc2)ccn1`, the GI50 in experiment [1] is 12.8 µM (inactive); in experiment [2], 23 µM (inactive); in experiment [3], 3.27 µM (inactive); in [4] it was 12.9 µM (inactive); in experiment [5], 18.5 µM; in [6], 18.5 µM (inactive). For the same compound, the GI50 is 11.4 µM (inactive) in experiment [7]; 13.6 µM (inactive) in experiment [8]; 18.2 µM (inactive) in experiment [9]; 26 µM (inactive) in experiment [10]; 14.6 µM (inactive) in [11]; 17.7 µM (inactive) in experiment [12]. The GI50 in experiment [13] was 16.9 µM (inactive); in [14], 24.4 µM (inactive); in experiment [15], 19.8 µM (inactive); in experiment [16], 33.9 µM (inactive); in experiment [17] it was 16.3 µM (inactive); in experiment [18], 19.6 µM (inactive). Further, the GI50 in experiment [19] is 17 µM (inactive); in [20], 12.6 µM (inactive).
